# Data reported in US11692222B2, “Animal model of non-alcoholic liver disease and composition of diagnosis, prevention or treatment for non-alcoholic liver disease” (KOREA ADVANCED INSTITUTE OF SCIENCE AND TECHNOLOGY, priority 2018, dated 2023).
# Tests used:
# [1] = system: DKO mice (Pten−/−;Sav1−/−); experiment: MK-2206 treatment of 3-week-old DKO mice for 2 weeks (fatty liver); format: in vivo, mouse; details: 66 mg/kg i.p. every other day for 2 weeks, vs vehicle
# Protocol: (§1) Adenovirus for overexpression of CRE, YAP5SA, TAZ4SA, or GFP (control) and AAV-saCas9-sgIrs2 or sgCtl in the mouse liver were injected into the tail vain of […], respectively. The mice were deprived of food for 16 hours at day 4 (YAP5SA, TAZ4SA, and GFP) or week 4 (CRE and GFP) after adenovirus injection. MK-2206 (Selleckchem; S1078) was prepared in 30% Captisol (CyDex Pharmaceuticals; RC-0C7) and administered to DKO mice by intraperitoneal injection at a dose of 66 mg/kg every other day for 2 weeks, beginning at 3 or 12 weeks of age.
# Given the lack of treatments for NASH, the present inventors next asked whether pharmacological inhibition of AKT could ameliorate fatty liver and slow cancer progression in DKO mice. To this end, the present inventors administered the pan-AKT inhibitor MK-2206 (phase II clinical trials) intraperitoneally to 3-week-old DKO mice.
# FIGS. 8b to 8d are graphs of the result of liver-to-body weight ratio percentage, the analysis of liver enzymes in the serum, the qPCR analysis of lipogenesis-related gene expression in the liver of control (white bars) and MK-2206 (red bars), respectively.
# [2] = system: DKO mice (Pten−/−;Sav1−/−); experiment: MK-2206 treatment of 12-week-old DKO mice for 2 weeks (liver cancer); format: in vivo, mouse
# Protocol: as §1
# Further, to investigate the suppression of liver cancer, MK-2206 was injected to 12-week-old DKO mice that 80% of them had liver tumor (FIG. 1b). The graphs of FIG. 8f are the result of the result of liver-to-body weight ratio (F), liver tumor number and size (G), serum analysis (H) of the experiment shown in FIG. 8f. The graph representing the quantification analysis of Ki-67^+ hepatocytes of specimen is shown in FIG. 8h, and a graph representing the qPCR analysis of the expression of genes related to fibrosis (Acta2, desmin, and Tgfb), cell death or injury (Hmox1 and Gadd153), or inflammation (Tnfa) is shown in FIG. 8i.
# [3] = 12-week-old DKO mice, 2 weeks treatment, vs vehicle
structure (smiles),measurement,setting,value
NC1(c2ccc(-c3nc4ccn5c(=O)[nH]nc5c4cc3-c3ccccc3)cc2)CCC1 [MK-2206],"expression of lipogenesis-related genes (Fasn, Acc1, Srebp1c), qPCR in liver",[1],lower expression of lipogenesis-related genes
same,"fatty liver (macroscopic, H&E, Oil red O)",[1],less fatty liver
same,liver fibrosis (Sirius red),[1],reduced liver fibrosis
same,liver function (liver enzymes in serum),[1],improved liver function
same,liver weight (liver-to-body weight ratio),[1],decreased liver weight
same,fatty liver and tumorigenesis,"[2]; 12-week-old DKO mice, 66 mg/kg i.p. every other day for 2 weeks, vs vehicle",reduced fatty liver and tumorigenesis
same,Ki-67-positive cells,[2]; [3],fewer Ki-67-positive cells
same,YAP expression (IHC),[2]; [3],without a corresponding change in YAP expression
same,"expression of genes related to fibrosis (Acta2, desmin, Tgfb), cell death or injury (Hmox1, Gadd153) and inflammation (Tnfa), qPCR",[2]; [3],reduced expression of genes related to fibrosis
same,fibrosis (Picrosirius red),[2]; [3],reduced fibrosis
same,hepatocyte TAZ expression (IHC),[2]; [3],lower levels of hepatocyte TAZ expression
same,hepatocytes with excessive lipid droplets (H&E),[2]; [3],fewer hepatocytes with excessive lipid droplets
same,liver color,[2]; [3],normalized liver color
same,liver size (liver-to-body weight ratio),[2]; [3],reduced liver size
same,tumor nodule size,[2]; [3],reduction in tumor nodule size
same,development of NAFLD and liver cancer in DKO mice,"[2]; overall conclusion, DKO mice treated from 3 or 12 weeks of age",markedly attenuates the development of NAFLD and liver cancer
